Holding throughout (experiment): DTP human tumour cell line panel, 48 h
The subject of assay [1] is PC-3 prostate.
Assay [2] relates to SNB-19 CNS.
The test system of assay [3] is HCC-2998 colon.
The test system of assay [4] is HL-60(TB) leukemia.
The test system of assay [5] is MDA-N.
For assay [6], the system named is HT29 colon.
Assay [7] has as its system OVCAR-4 ovarian.
Assay [8] has as its system KM12 colon.
In assay [9] the test system is DU-145 prostate.
In assay [10] the test system is M14 melanoma.
The test system of assay [11] is CCRF-CEM leukemia.
Assay [12] deals with SK-MEL-28 melanoma.
Assay [13] has as its system BT-549 breast.
Assay [14] has as its system A498 renal.
Assay [15] relates to SR leukemia.
For assay [16], the system named is NCI-H522 lung.

Molecules are shown by their SMILES.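 Each compound was tested at five concentrations against cells in 96-well plates for 48 hours. TGI is the concentration that stops growth completely.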 Where only a bound is given, the exact number is not on record here.

Turning to `O=c1c(O)c(-c2ccc(O)cc2O)oc2cc(O)cc(O)c12`, the concentration for total growth inhibition (TGI) in [1], in assay [2], in assay [3], in assay [4], in [5] and in assay [6] was over 100 µM in each case. In addition, the total growth inhibition concentration (TGI) in assay [7], in [8], in assay [9], in [10], in assay [11] and in [12] was over 100 µM throughout.
For the molecule `COc1c2c(c(OC)c3c1c(=O)c1ccccc1n3C)OCO2`, the total growth inhibition concentration (TGI) in [1] is over 100 µM; in assay [2], over 100 µM; in assay [3], over 100 µM; in assay [13], over 100 µM; in assay [4], over 25.6 µM; in assay [6] it was over 100 µM. The TGI in assay [7] was over 100 µM; in [8] it was over 41.9 µM; in [14] it was over 100 µM; in [9] it was over 100 µM; in assay [15], over 29.7 µM; in [16] it was over 43.1 µM. Besides, the values for the TGI in assay [10], in [11] and in assay [12] were over 100 µM, over 31.6 µM and over 100 µM, respectively.
`NC(=O)NC(=O)c1cnccn1`: the total growth inhibition concentration (TGI) in [1], in assay [2], in assay [3], in assay [5], in assay [7] and in assay [8] was over 100 µM throughout. For the same molecule, the total growth inhibition concentration (TGI) in assay [14], in [9], in assay [16], in assay [10], in assay [11] and in assay [12] was over 100 µM each time.
As to `CC(=O)/C(C=Nc1c(C)n(C)n(-c2ccccc2)c1=O)=C(/C)O`, the TGI in [1], in [2], in assay [3], in [13], in [4] and in assay [7] was over 100 µM each time. For the same molecule, the TGI in assay [8], in assay [14], in assay [9], in assay [15], in assay [16] and in assay [10] was over 100 µM in each case. In assay [11], this molecule returned a TGI of over 100 µM.
As to `Cc1ccc(Nc2nc(=S)[nH]c3[nH]ncc23)cc1`, the concentration for total growth inhibition (TGI) in assay [1], in assay [2], in assay [3], in assay [13], in assay [4] and in [6] was over 100 µM in each case. For the same molecule, the TGI in assay [7], in assay [8], in assay [14], in assay [9], in [15] and in assay [16] was over 100 µM throughout. Further, the TGI in assay [10], in assay [11] and in assay [12] was over 100 µM throughout.
In the case of `CCCCCCCCC[C@@H]1C[C@@H]2CCC3C(C(=O)OC)=C(C)NC(=N1)N32` (stereo partly drawn), the TGI in assay [1] worked out at 18.3 µM; in assay [2] it was 18.6 µM; in assay [3], 8.53 µM; in assay [13], 24.4 µM; in assay [4] it was 26.9 µM; in [6], 22.2 µM. Moreover, the TGI in assay [7] is 25.4 µM; in assay [8], 14 µM; in assay [9], 21.9 µM; in assay [15], over 100 µM; in assay [16], 9.82 µM; in [10], 21.8 µM. Further, the concentration for total growth inhibition (TGI) in assay [11] and in assay [12] was over 100 µM in each case.
Take `CSC1=N/C(=C\c2ccc(C)cc2)C(=O)N1CN1CCOCC1`: the total growth inhibition concentration (TGI) is over 100 µM in assay [1]; over 100 µM in assay [2]; over 100 µM in assay [4]; over 100 µM in assay [5]; 32.9 µM in assay [7]; over 100 µM in assay [8]. The total growth inhibition concentration (TGI) in [14], in [9], in [15], in assay [16], in assay [10] and in [11] was over 100 µM in each case.
Regarding `c1ccc(COc2ccc(CC3SCCCS3)cc2)cc1`, the TGI in assay [1], in [2], in assay [3], in assay [4], in [5] and in assay [6] was over 100 µM throughout. Moreover, the concentration for total growth inhibition (TGI) in assay [7], in assay [9], in assay [15], in assay [16], in [10] and in assay [11] was over 100 µM throughout. In addition, the total growth inhibition concentration (TGI) in [12] is over 100 µM.
`NCc1ccc(-c2ccc(-c3ccc(-c4ccc(CN)s4)s3)s2)s1`: the TGI in assay [1], in assay [2], in [3], in [4], in assay [5] and in assay [6] was over 100 µM each time. In addition, the TGI in assay [7], in assay [8], in [14], in [9], in assay [16] and in assay [10] was over 100 µM each time. Besides, the TGI in assay [11] and in [12] was over 100 µM throughout.
Regarding `CC(C(=O)N1C(=O)N(C(=O)C(C)C(O)c2ccccc2)C(c2ccccc2)C1c1ccccc1)C(O)c1ccccc1` (stereo not drawn), the concentration for total growth inhibition (TGI) is over 100 µM in assay [2]; over 100 µM in assay [3]; 38.8 µM in assay [13]; 6.79 µM in assay [4]; 18.8 µM in assay [6]; over 100 µM in [7]. Further, the total growth inhibition concentration (TGI) in [8] is 5.69 µM; in assay [9] it was over 100 µM; in assay [15], 14.5 µM; in [16], 48.4 µM; in assay [10], 33.4 µM; in assay [11], 32.2 µM. The molecule also returned a concentration for total growth inhibition (TGI) in assay [12] of 40.2 µM.
